Key:
Kinase = biological target: T1, Kinase (Mus musculus, UniProt B2RXC2); assay: Inhibition of mouse ITPKb (640 to 942 residues) expressed in Escherichia coli HK100 assessed as reduction in IP3 phosphorylation incubated for 60 mins by kinase-Glo ATP depletion assay
T1 sequence (B2RXC2 whole entry): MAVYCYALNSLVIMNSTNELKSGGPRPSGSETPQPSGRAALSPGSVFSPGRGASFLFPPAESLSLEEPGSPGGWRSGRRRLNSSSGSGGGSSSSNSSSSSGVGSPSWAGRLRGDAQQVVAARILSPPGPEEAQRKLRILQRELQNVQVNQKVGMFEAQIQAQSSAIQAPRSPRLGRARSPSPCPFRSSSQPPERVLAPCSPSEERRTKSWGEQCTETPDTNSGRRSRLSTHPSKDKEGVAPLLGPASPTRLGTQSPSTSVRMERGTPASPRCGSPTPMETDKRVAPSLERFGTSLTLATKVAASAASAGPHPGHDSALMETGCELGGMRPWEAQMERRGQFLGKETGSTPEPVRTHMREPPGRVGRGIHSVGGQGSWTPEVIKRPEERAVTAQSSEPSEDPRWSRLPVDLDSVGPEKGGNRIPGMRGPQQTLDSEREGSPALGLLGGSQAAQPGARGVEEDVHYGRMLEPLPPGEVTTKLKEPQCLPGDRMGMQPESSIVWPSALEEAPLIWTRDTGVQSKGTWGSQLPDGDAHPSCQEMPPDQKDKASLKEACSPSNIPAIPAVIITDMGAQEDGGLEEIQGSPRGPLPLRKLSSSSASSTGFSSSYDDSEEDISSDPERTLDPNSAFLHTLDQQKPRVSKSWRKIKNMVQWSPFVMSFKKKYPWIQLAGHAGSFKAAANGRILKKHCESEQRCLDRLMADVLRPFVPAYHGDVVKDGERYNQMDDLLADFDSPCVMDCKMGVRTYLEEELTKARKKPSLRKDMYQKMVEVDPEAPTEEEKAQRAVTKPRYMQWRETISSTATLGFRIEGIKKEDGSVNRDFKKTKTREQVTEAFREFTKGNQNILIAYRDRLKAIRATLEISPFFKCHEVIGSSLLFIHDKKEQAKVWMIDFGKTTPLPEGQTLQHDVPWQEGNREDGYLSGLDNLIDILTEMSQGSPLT

[1] = biological target: T2, Inositol-trisphosphate 3-kinase B (Homo sapiens, UniProt P27987); assay: Inhibition of ITPKb in human Jurkat cells assessed as reduction in conversion of IP3 to IP4 using [3H]-myo-inositol incubated for 5 mins by beta-RAM radio-HPLC method; format: cell-based
T2 sequence (P27987 whole entry): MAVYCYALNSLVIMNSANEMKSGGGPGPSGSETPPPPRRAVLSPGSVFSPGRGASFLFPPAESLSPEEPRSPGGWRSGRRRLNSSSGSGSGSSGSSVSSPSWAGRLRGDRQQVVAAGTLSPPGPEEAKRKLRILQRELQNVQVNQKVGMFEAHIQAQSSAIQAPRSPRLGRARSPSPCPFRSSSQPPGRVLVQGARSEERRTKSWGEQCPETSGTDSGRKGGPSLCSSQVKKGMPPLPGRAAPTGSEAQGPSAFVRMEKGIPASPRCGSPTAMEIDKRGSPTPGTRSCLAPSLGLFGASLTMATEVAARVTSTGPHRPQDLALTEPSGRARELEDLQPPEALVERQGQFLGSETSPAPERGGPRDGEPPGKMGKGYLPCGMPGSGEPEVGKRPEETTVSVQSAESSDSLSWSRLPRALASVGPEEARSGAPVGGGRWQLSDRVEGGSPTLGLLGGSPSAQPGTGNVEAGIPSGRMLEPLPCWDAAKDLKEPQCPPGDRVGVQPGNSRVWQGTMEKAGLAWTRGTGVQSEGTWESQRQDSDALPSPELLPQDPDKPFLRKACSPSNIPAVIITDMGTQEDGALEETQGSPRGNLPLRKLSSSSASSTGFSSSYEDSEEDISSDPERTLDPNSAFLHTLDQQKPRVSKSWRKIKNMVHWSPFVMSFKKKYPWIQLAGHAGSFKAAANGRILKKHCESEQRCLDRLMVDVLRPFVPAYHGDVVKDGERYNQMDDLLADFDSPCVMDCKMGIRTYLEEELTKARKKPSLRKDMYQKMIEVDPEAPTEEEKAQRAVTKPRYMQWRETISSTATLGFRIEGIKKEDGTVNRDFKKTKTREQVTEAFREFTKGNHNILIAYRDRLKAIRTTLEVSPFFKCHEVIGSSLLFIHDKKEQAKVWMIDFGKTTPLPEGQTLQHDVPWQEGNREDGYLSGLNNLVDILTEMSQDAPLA

C[C@@H]1CN(Cc2c[nH]nc2-c2ccc3c(c2)CNC(=O)O3)CCN1c1cccc(C(F)(F)F)c1
IC50 (Kinase): < 100 nM
IC50 [1]: < 500 nM

C[C@H]1CN(Cc2c[nH]nc2-c2ccc3oc(=O)[nH]c(=O)c3c2)CCN1c1ccc(C(F)(F)F)cn1
IC50 (Kinase): < 100 nM
IC50 [1]: < 500 nM

O=C1NCc2cc(-c3n[nH]cc3CN3CCN(c4ccc(C(F)(F)F)cn4)C[C@H]3CF)ccc2O1
IC50 (Kinase): < 100 nM
IC50 [1]: < 500 nM

O=C1NCc2cc(-c3n[nH]cc3CN3C4CC3CN(c3ccc(C(F)(F)F)cn3)C4)ccc2O1
IC50 (Kinase): < 100 nM
IC50 [1]: < 500 nM

C[C@@H]1CN(Cc2c[nH]nc2-c2ccc3c(c2)C(=O)NC(=O)C3)CCN1c1ccc(C(F)(F)F)cn1
IC50 (Kinase): < 100 nM
IC50 [1]: < 500 nM

O=C1NCc2cc(-c3n[nH]cc3CN3CCN(c4ccc(C(F)(F)F)cn4)[C@@H](C(F)(F)F)C3)ccc2O1
IC50 (Kinase): < 100 nM
IC50 [1]: < 500 nM

C[C@@H]1CN(Cc2c[nH]nc2-c2ccc3c(c2)CNC(=O)O3)CCN1C1CCCCC1
IC50 (Kinase): < 100 nM
IC50 [1]: < 500 nM

Cc1ccc(N2CCN(Cc3c[nH]nc3-c3ccc4c(c3)CNC(=O)O4)C[C@H]2C)nc1
IC50 (Kinase): < 100 nM
IC50 [1]: < 500 nM

O=C1NCc2cc(-c3n[nH]cc3CN3CCN(c4ccc(C(F)(F)F)cn4)C(C(F)(F)F)C3)ccc2O1 (stereo not drawn)
IC50 (Kinase): < 100 nM
IC50 [1]: < 500 nM

C[C@@H]1CN(Cc2c[nH]nc2-c2ccc3c(c2)CNC(=O)O3)CCN1c1ccc(Cl)cn1
IC50 (Kinase): < 100 nM
IC50 [1]: < 500 nM

O=C1NCc2cc(-c3n[nH]cc3CN3CCN(c4ccc(C(F)(F)F)cn4)[C@H](C(F)(F)F)C3)ccc2O1
IC50 (Kinase): < 100 nM
IC50 [1]: < 500 nM

C[C@@H]1CN(Cc2c[nH]nc2-c2ccc3c(c2)CNC(=O)O3)CCN1c1ccc(C(F)(F)F)cc1
IC50 (Kinase): < 100 nM
IC50 [1]: < 500 nM

Cc1cccc(N2CCN(Cc3c[nH]nc3-c3ccc4oc(=O)[nH]c(=O)c4c3)CC2)c1C
IC50 (Kinase): < 100 nM
IC50 [1]: < 500 nM

C[C@@H]1CN(Cc2c[nH]nc2-c2ccc3c(c2)CNC(=O)N3)CCN1c1ccc(C(F)(F)F)cn1
IC50 (Kinase): < 100 nM
IC50 [1]: < 500 nM

O=C1NCc2cc(-c3n[nH]cc3CN3C4CCC3CN(c3ccc(C(F)(F)F)cn3)C4)ccc2O1
IC50 (Kinase): < 100 nM
IC50 [1]: < 500 nM

C[C@@H]1CN(Cc2c[nH]nc2-c2ccc3oc(=O)[nH]c3c2)CCN1c1ccc(C(F)(F)F)cn1
IC50 (Kinase): < 100 nM
IC50 [1]: < 500 nM

O=C1NCc2cc(-c3n[nH]cc3CN3CCN(c4ccc(C(F)(F)F)cn4)CC3C(F)(F)F)ccc2O1 (stereo not drawn)
IC50 (Kinase): < 100 nM

C[C@@H]1CN(Cc2c[nH]nc2-c2ccc3c(c2)CNC(=O)O3)CCN1c1ccc(C(F)(F)F)cn1
IC50 (Kinase): < 100 nM
IC50 [1]: < 500 nM

C[C@@H]1CN(Cc2c[nH]nc2-c2ccc3[nH]c(=O)oc3c2)CCN1c1ccc(C(F)(F)F)cn1
IC50 (Kinase): < 100 nM
IC50 [1]: < 500 nM

O=C1Cc2ccc(-c3n[nH]cc3CN3CCCN(c4ccc(C(F)(F)F)cn4)CC3)cc2CN1
IC50 (Kinase): < 100 nM
IC50 [1]: < 500 nM

O=C1NCc2cc(-c3n[nH]cc3CN3CCCN(c4ccc(C(F)(F)F)cn4)CC3)ccc2O1
IC50 (Kinase): < 100 nM
IC50 [1]: < 500 nM

C[C@@H]1CN(Cc2c[nH]nc2-c2ccc3c(c2)C(C)(C)NC(=O)O3)CCN1c1ccc(C(F)(F)F)cn1
IC50 (Kinase): < 100 nM
IC50 [1]: < 500 nM

O=C1NCc2cc(-c3n[nH]cc3CN3CCN(c4ccc(C(F)(F)F)cn4)[C@H](CF)C3)ccc2O1
IC50 (Kinase): < 100 nM
IC50 [1]: < 500 nM

Cc1cccc(N2CCN(Cc3c[nH]nc3-c3ccc4[nH]c(=O)oc4c3)CC2)c1C
IC50 (Kinase): < 100 nM
IC50 [1]: < 500 nM

C[C@H]1CN(Cc2c[nH]nc2-c2ccc3c(c2)CNC(=O)O3)CCN1c1ccc(C(F)(F)F)cn1
IC50 (Kinase): < 100 nM
IC50 [1]: < 500 nM

O=C1NCc2cc(-c3n[nH]cc3CN3CCN(c4ccc(C(F)(F)F)cn4)C[C@H]3C(=O)O)ccc2O1
IC50 (Kinase): < 100 nM
IC50 [1]: < 500 nM

C[C@@H]1CN(Cc2c[nH]nc2-c2ccc3c(c2)CNC(=O)O3)CCN1Cc1ccccc1F
IC50 (Kinase): < 100 nM
IC50 [1]: < 500 nM

O=C1NCc2cc(-c3n[nH]cc3CN3CCN(c4ccc(C(F)(F)F)cn4)[C@H](CO)C3)ccc2O1
IC50 (Kinase): < 100 nM
IC50 [1]: < 500 nM

O=C1NCc2cc(-c3n[nH]cc3CN3CCCN(c4ccc(C(F)(F)F)cn4)CC3)ccc2N1
IC50 (Kinase): < 100 nM
IC50 [1]: < 500 nM

C[C@@H]1CN(Cc2c[nH]nc2-c2ccc3c(c2)CNC(=O)O3)CCN1c1nccc(C(F)(F)F)n1
IC50 (Kinase): < 100 nM
IC50 [1]: < 500 nM

C[C@@H]1CN(Cc2c[nH]nc2-c2ccc3oc(=O)[nH]c(=O)c3c2)CCN1c1ccc(C(F)(F)F)cn1
IC50 (Kinase): < 100 nM
IC50 [1]: < 500 nM

O=C1NCc2cc(-c3n[nH]cc3CN3CCN(c4ccc(C(F)(F)F)cn4)C[C@H]3CO)ccc2O1
IC50 (Kinase): < 100 nM
IC50 [1]: < 500 nM

C[C@@H]1CN(Cc2c[nH]nc2-c2ccc3c(c2)CNC(=O)O3)CCN1c1ccc(C#N)cn1
IC50 (Kinase): < 100 nM
IC50 [1]: < 500 nM

C[C@@H]1CN(Cc2c[nH]nc2-c2ccc3c(c2)CNC(=O)C3)CCN1c1ccc(C(F)(F)F)cn1
IC50 (Kinase): < 100 nM
IC50 [1]: < 500 nM

C[C@@H]1CN(Cc2c[nH]nc2-c2ccc3c(c2)CNC(=O)O3)CCN1c1ccc(Cl)cc1
IC50 (Kinase): < 100 nM
IC50 [1]: < 500 nM

O=c1[nH]c(=O)c2cc(-c3n[nH]cc3CN3CCN(c4ccc(C(F)(F)F)cn4)CC3)ccc2o1
IC50 (Kinase): < 100 nM
IC50 [1]: < 500 nM

C[C@H]1CN(Cc2c[nH]nc2-c2ccc3[nH]c(=O)oc3c2)CCN1c1ccc(C(F)(F)F)cn1
IC50 (Kinase): < 100 nM
IC50 [1]: < 500 nM

O=C1NCc2cc(-c3n[nH]cc3CN3CCN(c4ccc(C(F)(F)F)cn4)C4(CC4)C3)ccc2O1
IC50 (Kinase): < 100 nM
IC50 [1]: < 500 nM

C[C@@H]1CN(Cc2c[nH]nc2-c2ccc3c(c2)CNC(=O)O3)CCN1c1cc(C#N)ccn1
IC50 (Kinase): < 100 nM
IC50 [1]: < 500 nM

O=C1NCc2cc(-c3n[nH]cc3CN3CCN(c4ccc(C(F)(F)F)cn4)CC3)ccc2O1
IC50 (Kinase): < 100 nM
IC50 [1]: < 500 nM

O=c1[nH]c(=O)c2cc(-c3n[nH]cc3CN3C4CCC3CN(c3ccc(C(F)(F)F)cn3)C4)ccc2o1
IC50 (Kinase): < 100 nM
IC50 [1]: < 500 nM

C[C@@H]1CN(Cc2n[nH]nc2-c2ccc3c(c2)CNC(=O)O3)CCN1c1ccc(C(F)(F)F)cn1
IC50 (Kinase): < 100 nM
IC50 [1]: < 500 nM

Reference: ChEMBL document CHEMBL3714748, “Compounds and compositions as ITPKB inhibitors” (2012)
